Source: ChEMBL document CHEMBL1158780, “Anti-Helicobacter pylori compounds from Santalum album” (2005)
In brackets after ≈: the same amount, converted by molar mass.

Key:
Assay type in all cases: functional
Helicobacter pylori [1] = assay: Antimicrobial activity against Clarithromycin-resistant Helicobacter pylori TS281 after 4 days by twofold plate dilution method; details: 96 h
Helicobacter pylori [2] = assay: Antimicrobial activity against Helicobacter pylori ATCC 43504 after 4 days by twofold plate dilution method; details: ATCC 43504, 96 h
Helicobacter pylori [3] = assay: Antimicrobial activity against Helicobacter pylori SS1 after 4 days by twofold plate dilution method; details: SS1, 96 h
Helicobacter pylori [4] = assay: Antimicrobial activity against Helicobacter pylori TPH30 after 4 days by twofold plate dilution method; details: 96 h
Helicobacter pylori [5] = assay: Antimicrobial activity against Helicobacter pylori Sa-2 isolate after 4 days by twofold plate dilution method; details: 96 h
Helicobacter pylori [6] = assay: Antimicrobial activity against Helicobacter pylori Sa-1 isolate after 4 days by twofold plate dilution method; details: 96 h
Helicobacter pylori [7] = assay: Antimicrobial activity against Helicobacter pylori Sa-3 isolate after 4 days by twofold plate dilution method; details: 96 h
Helicobacter pylori [8] = assay: Antimicrobial activity against Clarithromycin-resistant Helicobacter pylori TS648 after 4 days by twofold plate dilution method; details: 96 h
Helicobacter pylori [9] = assay: Antimicrobial activity against Helicobacter pylori SS1 at 100 ug/disk after 4 days by disk diffusion method; details: SS1, 96 h, read-out: IZ
Helicobacter pylori [10] = assay: Antimicrobial activity against Helicobacter pylori ATCC 43504 at 100 ug/disk after 4 days by disk diffusion method; details: ATCC 43504, 96 h, read-out: IZ
Helicobacter pylori [11] = assay: Antimicrobial activity against Helicobacter pylori ATCC 43504 at 250 ng/disk after 4 days by disk diffusion method
Helicobacter pylori [12] = assay: Antimicrobial activity against Helicobacter pylori SS1 at 250 ng/disk after 4 days by disk diffusion method

Row | SMILES | MIC (Helicobacter pylori [1]) [µg/mL] | MIC (Helicobacter pylori [2]) [µg/mL] | MIC (Helicobacter pylori [3]) [µg/mL] | MIC (Helicobacter pylori [4]) [µg/mL] | MIC (Helicobacter pylori [5]) [µg/mL] | MIC (Helicobacter pylori [6]) [µg/mL] | MIC (Helicobacter pylori [7]) [µg/mL] | MIC (Helicobacter pylori [8]) [µg/mL] | zone of inhibition at 100 µg/disc (Helicobacter pylori [9]) [mm] | zone of inhibition at 100 µg/disc (Helicobacter pylori [10]) [mm] | inhibition zone (IZ) (Helicobacter pylori [11]) [mm] | inhibition zone (IZ) (Helicobacter pylori [12]) [mm]
1 | CC[C@H]1OC(=O)[C@H](C)[C@@H](O[C@H]2C[C@@](C)(OC)[C@@H](O)[C@H](C)O2)[C@H](C)[C@@H](O[C@@H]2O[C@H](C)C[C@H](N(C)C)[C@H]2O)[C@](C)(OC)C[C@@H](C)C(=O)[C@H](C)[C@@H](O)[C@]1(C)O [CLARITHROMYCIN] | 32 (≈ 42.8 µM) | ≤ 0.06 | ≤ 0.06 | ≤ 0.06 | ≤ 0.06 | ≤ 0.06 | ≤ 0.06 | 2 (≈ 2.67 µM) | – | – | – | –
2 | CC1(CCC=C(CO)CO)C2CC3C(C2)C31C (stereo not drawn) | – | – | – | – | – | – | – | – | 25.9 | 38.7 | – | –
3 | C=C(CC/C=C(/C)CO)[C@H]1CC[C@@](C)(O)CC1 | – | – | – | – | – | – | – | – | – | 8.9 | – | –
4 | C=C1[C@H]2CC[C@H](C2)[C@@]1(C)CC/C=C(/C)CO | 7.8 (≈ 35.4 µM) | 7.8 (≈ 35.4 µM) | 31.3 (≈ 142 µM) | 7.8 (≈ 35.4 µM) | 7.8 (≈ 35.4 µM) | 7.8 (≈ 35.4 µM) | 7.8 (≈ 35.4 µM) | 7.8 (≈ 35.4 µM) | 13.5 | 27.2 | – | –
5 | C=C1[C@H]2CC[C@H](C2)[C@]1(C)CCC=C(CO)CO | – | – | – | – | – | – | – | – | 10.4 | 21.1 | – | –
6 | C/C(=C/CC[C@]1(C)[C@H]2CC[C@]1(C)[C@@H](O)C2)CO | – | – | – | – | – | – | – | – | 22.8 | 28.9 | – | –
7 | C/C(=C/CC[C@@]1(C)C2CC[C@@](C)(C2)[C@@H]1O)CO | – | – | – | – | – | – | – | – | 15.5 | 27.6 | – | –
8 | C/C(=C/CC[C@@]1(C)[C@@H]2CC[C@@H](C2)[C@@]1(C)O)CO | – | – | – | – | – | – | – | – | 16.8 | 20.1 | – | –
9 | C/C(=C/CC[C@@]1(C)[C@H]2CC[C@]1(C)[C@H](O)C2)CO | – | – | – | – | – | – | – | – | 11.1 | 27.1 | – | –
10 | C/C(=C/CC[C@]1(C)C2C[C@@H]3[C@H](C2)C31C)CO | 15.6 (≈ 70.8 µM) | 15.6 (≈ 70.8 µM) | 31.3 (≈ 142 µM) | 15.6 (≈ 70.8 µM) | 31.3 (≈ 142 µM) | 7.8 (≈ 35.4 µM) | 7.8 (≈ 35.4 µM) | 7.8 (≈ 35.4 µM) | 11.5 | 21.6 | – | –
11 | C/C(=C/CCC(C)(O)c1ccc(C)cc1)CO (stereo not drawn) | – | – | – | – | – | – | – | – | 11.2 | 24.9 | – | –
12 | CC1(C)S[C@@H]2[C@H](NC(=O)[C@H](N)c3ccc(O)cc3)C(=O)N2[C@H]1C(=O)O [AMOXICILLIN] | 0.5 (≈ 1.37 µM) | 0.06 (≈ 0.164 µM) | 0.25 (≈ 0.684 µM) | 0.25 (≈ 0.684 µM) | 0.06 (≈ 0.164 µM) | 0.06 (≈ 0.164 µM) | 0.25 (≈ 0.684 µM) | 0.13 (≈ 0.356 µM) | – | – | 35.3 | 20.3
13 | C=C(CC/C=C(\C)CO)[C@@H]1CC=C(C)CC1 | 62.5 (≈ 284 µM) | 62.5 (≈ 284 µM) | 125 (≈ 567 µM) | 62.5 (≈ 284 µM) | 62.5 (≈ 284 µM) | 31.3 (≈ 142 µM) | 31.3 (≈ 142 µM) | 31.3 (≈ 142 µM) | 10.6 | 11.9 | – | –
